Where “and” joins values, the source holds several entries; their conditions need not be identical. Identical values can stand only once.
Tested on: 292921-168-R-J2-PDC complex spheroid viability
Assay: Anticancer human tumor 292921-168-R-J2-PDC patient-derived pancreatic carcinoma cell line growth inhibition
Conditions: for viability, T/C: stronger effect = lower value
Method in brief: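 Complex spheroids of tumor cells with HUVEC and human MSCs, exposed to iadademstat combined with other agents. Each agent tested in half-log steps from near clinical Cmax (else 10 microM top), DMSO ≤0.25%.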

[1] = curve of first compound, second compound 0.1 µM
[2] = curve of first compound, second compound 0.316 µM
[3] = curve of first compound, second compound 1 µM
[4] = curve of first compound, second compound 3.16 µM
[5] = curve of first compound, second compound 10 µM
[6] = second compound 0.1 µM, first compound 0.000316 µM
[7] = second compound 0.1 µM, first compound 0.001 µM
[8] = second compound 0.1 µM, first compound 0.00316 µM
[9] = second compound 0.1 µM, first compound 0.01 µM
[10] = second compound 0.1 µM, first compound 0.0316 µM
[11] = second compound 0.1 µM, first compound 0.1 µM
[12] = second compound 0.316 µM, first compound 0.000316 µM
[13] = second compound 0.316 µM, first compound 0.001 µM
[14] = second compound 0.316 µM, first compound 0.00316 µM
[15] = second compound 0.316 µM, first compound 0.01 µM
[16] = second compound 0.316 µM, first compound 0.0316 µM
[17] = second compound 0.316 µM, first compound 0.1 µM
[18] = second compound 1 µM, first compound 0.000316 µM
[19] = second compound 1 µM, first compound 0.001 µM
[20] = second compound 1 µM, first compound 0.00316 µM
[21] = second compound 1 µM, first compound 0.01 µM
[22] = second compound 1 µM, first compound 0.0316 µM
[23] = second compound 1 µM, first compound 0.1 µM
[24] = second compound 3.16 µM, first compound 0.000316 µM
[25] = second compound 3.16 µM, first compound 0.001 µM
[26] = second compound 3.16 µM, first compound 0.00316 µM
[27] = second compound 3.16 µM, first compound 0.01 µM
[28] = second compound 3.16 µM, first compound 0.0316 µM
[29] = second compound 3.16 µM, first compound 0.1 µM
[30] = second compound 10 µM, first compound 0.000316 µM
[31] = second compound 10 µM, first compound 0.001 µM
[32] = second compound 10 µM, first compound 0.00316 µM
[33] = second compound 10 µM, first compound 0.01 µM
[34] = second compound 10 µM, first compound 0.0316 µM
[35] = second compound 10 µM, first compound 0.1 µM
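Note: seven day compound exposure before luminescent viability read.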
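Throughout, for viability, T/C: 100% = DMSO vehicle control wells.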

| Structure (SMILES) | IC50 [1] [nM] | IC50 [2] [nM] | IC50 [3] [nM] | IC50 [4] [nM] | IC50 [5] [nM] | viability, T/C [6] [%] | viability, T/C [7] [%] | viability, T/C [8] [%] | viability, T/C [9] [%] | viability, T/C [10] [%] | viability, T/C [11] [%] | viability, T/C [12] [%] | viability, T/C [16] [%] | viability, T/C [17] [%] | viability, T/C [22] [%] | viability, T/C [23] [%] | viability, T/C [28] [%] | viability, T/C [29] [%] | viability, T/C [34] [%] | viability, T/C [35] [%] | also measured |
| --- | --- | --- | --- | --- | --- | --- | --- | --- | --- | --- | --- | --- | --- | --- | --- | --- | --- | --- | --- | --- | --- |
| Cn1ncnc1C1c2n[nH]c(=O)c3cc(F)cc(c23)NC1c1ccc(F)cc1 (configuration not stated) + NC1CCC(NC2CC2c2ccccc2)CC1 | > 100 | 81.4 | > 100 | 28.4 | > 100 | 68.7 | 69 | 64.6 | 66.7 | 66.6 | 53.4 | 66.6 | 54.2 | 49.1 | 47.1 | 55.7 | 46.8 | 46.6 | 50.4 | 54.3 | viability, T/C [13]: 60.4%; viability, T/C [14]: 62.1%; viability, T/C [15]: 52.8%; viability, T/C [18]: 67.6%; viability, T/C [19]: 60.3%; viability, T/C [20]: 54.9%; viability, T/C [21]: 52.9%; viability, T/C [24]: 57.7%; viability, T/C [25]: 57.1%; viability, T/C [26]: 58.6%; viability, T/C [27]: 53%; viability, T/C [30]: 59%; viability, T/C [31]: 60.4%; viability, T/C [32]: 60.8%; viability, T/C [33]: 57% |
| CC(C)CC(NC(=O)C(Cc1ccccc1)NC(=O)c1cnccn1)B(O)O (configuration not stated) + NC1CC1c1ccc(-c2cccc(O)c2)cc1 | < 0.316 | < 0.316 | < 0.316 | < 0.316 | < 0.316 | 21.2 | 1.11 | 0.47 | 0.39 | 0.14 | 0.17 | 18.8 | 0.18 | 0.17 | 0.22 | 0.17 | 0.46 | 0.31 | 0.45 | 0.25 | viability, T/C [13]: 1.91%; viability, T/C [14]: 0.24%; viability, T/C [15]: 0.18%; viability, T/C [18]: 16.9%; viability, T/C [19]: 1.68%; viability, T/C [20]: 0.21%; viability, T/C [21]: 0.19%; viability, T/C [24]: 15.4%; viability, T/C [25]: 0.61%; viability, T/C [26]: 0.17%; viability, T/C [27]: 0.14%; viability, T/C [30]: 12.3%; viability, T/C [31]: 0.8%; viability, T/C [32]: 0.29%; viability, T/C [33]: 0.54% |
| CC1COCCN1c1cc(C2(S(C)(=N)=O)CC2)nc(-c2ccnc3[nH]ccc23)n1 (configuration not stated) + NC1CCC(NC2CC2c2ccccc2)CC1 | 351 | 212 | 200 | 163 | 128 | – | – | – | – | 65.1 | 64.5 | – | 62.2 | 56.7 | 54.1 | 56.1 | 61 | 51.6 | 56.3 | 52 | viability, T/C (second compound 0.1 µM, first compound 0.316 µM): 52.3%; viability, T/C (second compound 0.1 µM, first compound 1 µM): 24.9%; viability, T/C (second compound 0.1 µM, first compound 3.16 µM): 12.7%; viability, T/C (second compound 0.1 µM, first compound 10 µM): 11.4%; viability, T/C (second compound 0.316 µM, first compound 0.316 µM): 46.5%; viability, T/C (second compound 0.316 µM, first compound 1 µM): 24.5%; viability, T/C (second compound 0.316 µM, first compound 3.16 µM): 14.3%; viability, T/C (second compound 0.316 µM, first compound 10 µM): 12.1%; viability, T/C (second compound 1 µM, first compound 0.316 µM): 46.6%; viability, T/C (second compound 1 µM, first compound 1 µM): 23.7%; viability, T/C (second compound 1 µM, first compound 3.16 µM): 12.7%; viability, T/C (second compound 1 µM, first compound 10 µM): 11.8%; viability, T/C (second compound 3.16 µM, first compound 0.316 µM): 44.8%; viability, T/C (second compound 3.16 µM, first compound 1 µM): 22.6%; viability, T/C (second compound 3.16 µM, first compound 3.16 µM): 13.3%; viability, T/C (second compound 3.16 µM, first compound 10 µM): 12.7%; viability, T/C (second compound 10 µM, first compound 0.316 µM): 41.2%; viability, T/C (second compound 10 µM, first compound 1 µM): 24.2%; viability, T/C (second compound 10 µM, first compound 3.16 µM): 14%; viability, T/C (second compound 10 µM, first compound 10 µM): 12.1% |
| CC1(C)CCC(CN2CCN(c3ccc(C(=O)NS(=O)(=O)c4ccc(NCC5CCOCC5)c([N+](=O)[O-])c4)c(Oc4cnc5[nH]ccc5c4)c3)CC2)=C(c2ccc(Cl)cc2)C1 | – | – | – | – | – | – | – | – | – | – | – | – | – | – | – | – | – | – | – | – | viability, T/C (compound 0.0316 µM): 105% and 108%; viability, T/C (compound 0.1 µM): 114%; viability, T/C (compound 0.316 µM): 110% and 108%; viability, T/C (compound 1 µM): 98.1% and 94.9%; viability, T/C (compound 3.16 µM): 20% and 19.2%; viability, T/C (compound 10 µM): 0.32% and 0.33%; IC50 (curve of compound): 2030 nM and 1980 nM |
| CC[C@@]1(O)C(=O)OCc2c1cc1n(c2=O)Cc2cc3c(CN(C)C)c(O)ccc3nc2-1 + NC1CCC(NC2CC2c2ccccc2)CC1 | 2.11 | 1.65 | 1.58 | 1.07 | 0.869 | 64.5 | 60.2 | 44.6 | 19.7 | 8.14 | 4.05 | 61.4 | 8.83 | 4.07 | 10.6 | 4.35 | 8.6 | 3.74 | 8.03 | 3.69 | viability, T/C [13]: 61%; viability, T/C [14]: 37.9%; viability, T/C [15]: 18.5%; viability, T/C [18]: 61.2%; viability, T/C [19]: 56.4%; viability, T/C [20]: 40.9%; viability, T/C [21]: 19.4%; viability, T/C [24]: 54.9%; viability, T/C [25]: 50.8%; viability, T/C [26]: 38.2%; viability, T/C [27]: 18.5%; viability, T/C [30]: 51.4%; viability, T/C [31]: 50.9%; viability, T/C [32]: 36.9%; viability, T/C [33]: 15.6% |

Source: PubChem BioAssay AID1918934 (Molecular Pharmacology Branch, DTP, NCI, 2023)
